# From article doi:10.1101/2024.08.19.608619, “Discovery of potent SARS-CoV-2 nsp3 macrodomain inhibitors uncovers lack of translation to cellular antiviral response” (bioRxiv, 2024)
# Values joined by “and” are separate entries in the source; they are usually repeats but may differ in a detail not shown here. Equal values may be shown once. Read-outs that look alike come from different tables or passages of the source.
# Tests used:
# [1] = Hepatic microsomal stability, HLM; format: in vitro ADME, human; conditions: In vitro human liver microsomal stability; for perc_remaining_no_cofactor: no cofactor
# HeLa-ACE2 cells = conditions: protocol HeLa-ACE2 cytotoxicity; for perc_max_measured: highest measured response of the dose series; for perc_min_measured: lowest measured response of the dose series
# [2] = test system: SARS-CoV-2, isolate USA-WA1/2020; assay: microbe, parasite or virus in culture; format: cell-based; conditions: for perc_max_measured: maximum measured response of dose series; for perc_min_measured: minimum measured response of dose series
# [3] = Hepatic microsomal stability, MLM; format: in vitro ADME
# [4] = Permeability Papp (AB) MDR1/MDCKII; conditions: In vitro MDR1-MDCKII permeability, mean; for perc_recovery_a_to_b_mean: recovery A to B
# MDR1 = assay: Permeability Papp (AB) MDR1/MDCKII; conditions: dog, MDCK-MDR1, papp_a_to_b_mean, In vitro MDR1-MDCKII permeability, A to B, mean
# SARS-CoV-2 = assay: Antiviral effect in iPSC-derived pneumocyte system; format: cell-based; conditions: iPSC pneumocytes SARS-CoV-2 antiviral effect; for perc_max_measured: maximum measured response of dose series; for perc_min_measured: minimum measured response of dose series
# iPSC pneumocytes = iPSC pneumocytes cytotoxicity; format: cell-based; conditions: for perc_max_measured: highest measured response of the dose series; for perc_min_measured: lowest measured response of the dose series
# Excerpt: (§1) Supplement media-1.zip/Cytotoxicity.csv, table | column: cc10; cc50; perc_min_measured; perc_max_measured
# SARS-CoV-2 nsp3-mac1 = SARS-CoV-2 nsp3-mac1 (Severe acute respiratory syndrome coronavirus 2, UniProt P0DTD1); assay: biochemical; conditions: for IC50: IC50, nsp3-mac1 activity, Figures 1-3 and text
# LogD = conditions: pH 7.4
# [5] = In vitro kinetic solubility
# in vitro [6] = conditions: human
# [7] = iPSC pneumocytes cytotoxicity; format: cell-based; conditions: protocol iPSC pneumocytes cytotoxicity
# Excerpt: as §1
# in vitro [8] = assay: in vitro; set-up: Cytotoxicity in iPSC-derived pneumocytes, CC50; conditions: human, ipsc-derived pneumocytes; ASAP-0008327-001=ASAP-0011153-001; read-out: 50.0
# MERS-CoV = format: cell-based; conditions: Vero 76 MERS-CoV antiviral effect
# in vitro [9] = conditions: human, hela-ace2 cells, 50.0
# [10] = HeLa-ACE2 SARS-CoV-2 antiviral effect without P-gp inhibitor
# [11] = Severe acute respiratory syndrome coronavirus 2, HeLa-ACE2
# [12] = In vitro mouse liver microsomal stability
# [13] = Severe acute respiratory syndrome coronavirus 2
# [14] = protocol iPSC pneumocytes cytotoxicity
Compound,perc_remaining [1] [%],t_half [1] [min],perc_remaining_no_cofactor [1] [%],perc_max_measured (HeLa-ACE2 cells),perc_min_measured (HeLa-ACE2 cells),"perc_max_measured [2, 10]","perc_min_measured [2, 10]","perc_remaining [3, 12] [%]","t_half [3, 12] [min]",perc_recovery_a_to_b_mean [4] [%],EC90 (SARS-CoV-2; [13]) [µM],perc_max_measured (SARS-CoV-2) [%],perc_min_measured (SARS-CoV-2) [%],perc_max_measured (iPSC pneumocytes; [14]) [%],perc_min_measured (iPSC pneumocytes; [14]) [%],IC50 (SARS-CoV-2 nsp3-mac1) [µM],CC50 (in vitro [6]) [µM],cc10 (HeLa-ACE2 cells) [µM],also measured
CCNC(=O)c1cc2c(NC(c3ccc4c(c3)OCCO4)C(C)C)ncnc2[nH]1 (stereo not shown) [ASAP-0008444],21.0,19.7,103.0,101.322% and 84.588%,64.265% and 70.325%,122.873% and 94.861%,70.184% and 54.623%,24.0,19.0,85.8,> 50,136.848,15.577,91.985,70.899,0.24,> 20,–,"microsomal CLint ([1]; liver microsomes): 85 µL/min/mg; EC50 [2, 11]: > 20 µM; EC90 [2, 11]: > 20 µM; perc_remaining_no_cofactor ([3]; In vitro mouse liver microsomal stability; no cofactor): 109.0%; microsomal CLint ([3]; liver microsomes; In vitro mouse liver microsomal stability): 88 µL/min/mg; Papp A→B (MDR1): 2.41 ×10⁻⁶ cm/s; EC50 (SARS-CoV-2; [13]): 41.1 µM; increase in potency relative to the starting point (SARS-CoV-2 nsp3-mac1; relative to ASAP-000450): 10 x; logd (LogD): 3; solubility ([5]; pH 7.4): 72 µM"
CC(C)C(Nc1ncnc2[nH]ccc12)c1ccc2c(c1)NC(=O)CO2 (stereo not shown) [ASAP-0008302],–,–,–,107.359%,95.445%,123.573%,69.199%,–,–,–,> 50,145.289,92.172,98.455,82.288,0.71,> 50,> 50.0,"EC50 ([2]; Severe acute respiratory syndrome coronavirus 2, HeLa-ACE2 SARS-CoV-2 antiviral effect without P-gp inhibitor, read-out: ec50): > 50 µM; EC90 ([2]; Severe acute respiratory syndrome coronavirus 2, HeLa-ACE2 SARS-CoV-2 antiviral effect without P-gp inhibitor, read-out: ec90): > 50 µM; EC50 (SARS-CoV-2; Severe acute respiratory syndrome coronavirus 2, iPSC): > 50 µM; CC50 [7]: > 50 µM; cc10 (iPSC pneumocytes; [14]): > 50.0 µM"
"CNC(=O)c1c[nH]c2ncnc(N[C@H](c3ccc4c(c3)S(=O)(=O)CCC4)C(C)C)c12 (single isomer, unassigned) [ASAP-0011153]",1.0,6.5,94.0,96.782%,85.977%,109.331%,66.391%,0.0,2.2,92.7,–,88.736,31.934,–,–,–,–,> 20.0,"clint [1]: 258.0 µL/min/mg; CC50 (HeLa-ACE2 cells): > 20 µM; CC50 (in vitro [8]): > 50 µM; EC50 ([2]; HeLa-ACE2 SARS-CoV-2 antiviral effect without P-gp inhibitor, read-out: ec50): > 20 µM; EC90 ([2]; HeLa-ACE2 SARS-CoV-2 antiviral effect without P-gp inhibitor, read-out: ec90): > 20 µM; clint [3, 12]: 770.0 µL/min/mg; perc_remaining_no_cofactor ([3]; In vitro mouse liver microsomal stability, no cofactor): 99.0%; papp_a_to_b_mean ([4]; A to B): 1.61 ×10⁻⁶ cm/s; EC50 (MERS-CoV): > 32 µM; EC50 (SARS-CoV-2): 6.74 µM; EC90 (SARS-CoV-2): > 50 µM; CC50 (iPSC pneumocytes): > 50 µM; cc10 (iPSC pneumocytes): > 50.0 µM; perc_max_measured (iPSC pneumocytes): 111.957%; perc_min_measured (iPSC pneumocytes): 100.111%; CC50 at 24 h (in vitro [9]): > 20 µM; CC50 (Vero 76): > 32 µM; logd (LogD; In vitro LogD): 2.7; solubility_mean ([5]; In vitro kinetic solubility, ph 7.4): 336 µM"
